Measurements taken from ChEMBL document CHEMBL3217480, “Cytotoxic sugar analogues of an optimized novobiocin scaffold” (Medchemcomm, 2010).
One block for each compound: values may come before it. Calls of active or inactive are those of the source. No cut-off for these calls is given here.

Key:
[1] = Antiproliferative activity against estrogen receptor-negative, Her2 overexpressing human SKBR3 cells after 72 hrs by MTS assay; type: functional, cell-based; settings: SK-BR-3, 72 h
MCF7 [2] = test: Antiproliferative activity against estrogen receptor positive human MCF7 cells after 72 hrs by MTS assay; type: functional, cell-based; settings: MCF7, 72 h
[3] = Inhibition of human SKBR3 cell proliferation; type: functional, cell-based; settings: SK-BR-3
MCF7 [4] = test: Effect on actin expression in human MCF7 cells at 0.5 to 25 uM after 24 hrs by Western blot analysis; type: ADME, cell-based; settings: mcf7, 24 h
MCF7 [5] = test: Effect on Hsp90 protein expression in human MCF7 cells at 0.5 to 25 uM after 24 hrs by Western blot analysis; type: functional, cell-based
[6] = target: Heat shock protein HSP 90-beta (Homo sapiens) (UniProt P08238); test: Inhibition of HSP90-dependent client protein Akt degradation in human MCF7 cells after 24 hrs by Western blot analysis; type: cell-based
Chain of Heat shock protein HSP 90-beta (Homo sapiens) (P08238 whole entry): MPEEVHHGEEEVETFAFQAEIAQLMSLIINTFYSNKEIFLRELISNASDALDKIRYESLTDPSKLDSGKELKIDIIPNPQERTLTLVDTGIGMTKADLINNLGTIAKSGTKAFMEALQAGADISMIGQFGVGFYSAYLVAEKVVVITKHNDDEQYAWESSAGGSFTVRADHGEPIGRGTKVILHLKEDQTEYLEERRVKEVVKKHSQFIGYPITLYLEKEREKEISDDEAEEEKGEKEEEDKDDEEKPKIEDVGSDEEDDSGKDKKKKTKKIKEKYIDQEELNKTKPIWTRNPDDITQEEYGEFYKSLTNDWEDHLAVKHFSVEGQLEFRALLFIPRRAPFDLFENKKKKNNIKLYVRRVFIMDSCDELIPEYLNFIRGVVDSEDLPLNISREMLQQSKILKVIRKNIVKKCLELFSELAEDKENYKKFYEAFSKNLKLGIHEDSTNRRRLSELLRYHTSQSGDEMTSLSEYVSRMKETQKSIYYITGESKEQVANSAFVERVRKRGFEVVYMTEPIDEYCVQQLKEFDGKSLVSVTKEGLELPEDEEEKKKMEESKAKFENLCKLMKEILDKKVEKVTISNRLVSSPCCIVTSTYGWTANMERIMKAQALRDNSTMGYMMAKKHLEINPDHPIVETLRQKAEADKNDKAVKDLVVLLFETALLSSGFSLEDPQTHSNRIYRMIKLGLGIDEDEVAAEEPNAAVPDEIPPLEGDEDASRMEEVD

[7] = target: Heat shock protein HSP 90-beta (Homo sapiens) (UniProt P08238); test: Inhibition of HSP90-dependent client protein Her-2 degradation in human MCF7 cells after 24 hrs by Western blot analysis; type: cell-based
[8] = target: Heat shock protein HSP 90-beta (Homo sapiens) (UniProt P08238); test: Inhibition of HSP90-dependent client protein Raf degradation in human MCF7 cells after 24 hrs by Western blot analysis; type: cell-based
HCT-116 = test: Inhibition of human HCT116 cell proliferation; type: functional, cell-based
PC-3 = test: Inhibition of human PC3 cell proliferation; type: functional, cell-based
[9] = Inhibition of human PL45 cell proliferation; type: functional, cell-based
LNCaP = test: Inhibition of human LNCAP cell proliferation; type: functional, cell-based
[10] = Inhibition of human Jurkat T cell cell proliferation; type: functional, cell-based

Compound: COc1cccc(-c2cc(C(=O)Nc3cc4ccc(O[C@H]5C[C@H](O)CCO5)c(C)c4oc3=O)ccc2OC)c1
IC50 [1]: 9.28 µM | IC50 (MCF7 [2]): 11.2 µM

Compound: COc1cccc(-c2cc(C(=O)Nc3cc4ccc(O[C@@H]5OC(C)(C)[C@H](OC)[C@@H](O)[C@H]5O)c(C)c4oc3=O)ccc2OC)c1
IC50 [3]: 7.5 µM | IC50 [1]: 7.5 µM | IC50 (MCF7 [2]): 18.7 µM

Compound: COc1cccc(-c2cc(C(=O)Nc3cc4ccc(O[C@@H]5CCC[C@@H](O)[C@H]5O)c(C)c4oc3=O)ccc2OC)c1
IC50 [1]: > 100 µM | IC50 (MCF7 [2]): > 100 µM

Compound: CNC(=O)Oc1ccc2cc(NC(=O)c3ccc(OC)c(-c4cccc(OC)c4)c3)c(=O)oc2c1C
Activity (MCF7 [4]): Non-toxic | Activity (MCF7 [5]): inactive | inhibition [6]: Dose-dependent effect | inhibition [7]: Dose-dependent effect | inhibition [8]: Dose-dependent effect

Now from value to compound, other results behind:

IC50 (MCF7 [2]): > 100 µM
Compound: COc1cccc(-c2cc(C(=O)Nc3cc4cc(OC)c(O[C@@H]5OC(C)(C)[C@H](OC)[C@@H](O)[C@H]5O)c(C)c4oc3=O)ccc2OC)c1
IC50 [3]: 58.8 µM | IC50 [1]: 58.8 µM

inhibition [6]: Dose-dependent effect | inhibition [7]: Dose-dependent effect | inhibition [8]: Dose-dependent effect
Compound: COc1cccc(-c2cc(C(=O)Nc3cc4ccc(OC5CCN(C)CC5)c(C)c4oc3=O)ccc2OC)c1
Activity (MCF7 [4]): Non-toxic | Activity (MCF7 [5]): inactive

IC50 (MCF7 [2]): 9.18 µM
Compound: COc1cccc(-c2cc(C(=O)Nc3cc4ccc(OC5CCCN(C(C)=O)C5)c(C)c4oc3=O)ccc2OC)c1 (centres undefined)
IC50 [1]: 10.8 µM

IC50 (HCT-116): 0.52 µM | IC50 (PC-3): 0.97 µM | IC50 (LNCaP): 0.42 µM | IC50 (MCF7 [2]): 1.5 µM
Compound: COc1cccc(-c2cc(C(=O)Nc3cc4cc(OC)c(OC(C)=O)c(C)c4oc3=O)ccc2OC)c1
IC50 [3]: 5.72 µM | IC50 [9]: 4.1 µM | IC50 [10]: 0.42 µM
